Test results published in patent publication US8895578B2, “Carboxamide, sulfonamide and amine compounds and methods for using the same” (Rigel Pharmaceuticals, Inc., priority 2007, dated 2014).

Molecular target: AMPK
Experiment: AMPK activation, enzyme-linked immunosorbent assay
Assay type: biochemical
Procedure: Compounds 1-54 were assayed for their ability to activate AMPK using an enzyme-linked immunosorbent assay.
Compounds 55-62 of Table 1 were assayed for their ability to activate AMPK using an enzyme-linked immunosorbent assay.
Compounds 63-66 of Table 1 were assayed for their ability to activate AMPK using an enzyme-linked immunosorbent assay.
Compounds 67-71 of Table 1 were assayed for their ability to activate AMPK using an enzyme-linked immunosorbent assay.
Compound 72 of Table 1 was assayed for its ability to activate AMPK using an enzyme-linked immunosorbent assay.

| SMILES | EC50 (Table 2, ELISA) | EC50 (Table 3, ELISA) | also measured |
| --- | --- | --- | --- |
| NC(=O)c1ccc(CN2CCc3[nH]c4ccc(C(=O)NC5CCN(Cc6ccncc6)CC5)cc4c3C2)cc1 [Compound 45, 2-(4-carbamoylbenzyl)-N-(1-(pyridin-4-ylmethyl)piperidin-4-yl)-2,3,4,5-tetrahydro-1H-pyrido [4,3-b]indole-8-carboxamide] | > 100 µM |  |  |
| NC(=O)c1ccc(CN2CCc3[nH]c4ccc(C(=O)NC5CCN(C(=O)c6ccncc6)CC5)cc4c3C2)cc1 [Compound 46, 2-(4-carbamoylbenzyl)-N-(1-isonicotinoylpiperidin-4-yl)-2,3,4,5-tetrahydro-1H-pyrido[4,3-b]indole-8-carboxamide] | > 100 µM |  |  |
| NC(=O)c1ccc(CN2CCc3[nH]c4ccc(C(=O)NC5CCN(Cc6ccc(C(F)(F)F)cc6)CC5)cc4c3C2)cc1 [Compound 47, 2-(4-carbamoylbenzyl)-N-(1-(4-(trifluoromethyl)benzyl)piperidin-4-yl)-2,3,4,5-tetrahydro-1H-pyrido[4,3-b]indole-8-carboxamide] | 10 to 50 µM |  |  |
| NC(=O)c1ccc(CN2CCc3[nH]c4ccc(C(=O)NC5CCN(Cc6ccc(F)cc6)CC5)cc4c3C2)cc1 [Compound 48, 2-(4-carbamoylbenzyl)-N-(1-(4-fluorobenzyl)piperidin-4-yl)-2,3,4,5-tetrahydro-1H-pyrido[4,3-b] indole-8-carboxamide] | > 100 µM |  |  |
| NC(=O)c1ccc(CN2CCC(NC(=O)c3ccc4[nH]c5c(c4c3)CN(Cc3ccc(C(N)=O)cc3)CC5)CC2)cc1 [Compound 49, 2-(4-carbamoylbenzyl)-N-(1-(4-carbamoylbenzyl)piperidin-4-yl)-2,3,4,5-tetrahydro-1H-pyrido [4,3-b]indole-8-carboxamide] | > 100 µM |  |  |
| O=C(NC1CCN(Cc2ccncc2)CC1)c1ccc2[nH]c3c(c2c1)CN(Cc1ccc(C(F)(F)F)cc1)CC3 [Compound 50, N-(1-(pyridin-4-ylmethyl)piperidin-4-yl)-2-(4-(trifluoromethyl)benzyl)-2,3,4,5-tetrahydro-1H-pyrido[4,3-b]indole-8-carboxamide] | < 0.5 µM |  |  |
| O=C(NC1CCN(C(=O)c2ccncc2)CC1)c1ccc2[nH]c3c(c2c1)CN(Cc1ccc(C(F)(F)F)cc1)CC3 [Compound 51, N-(1-isonicotinoyl-piperidin-4-yl)-2-(4-(trifluoromethyl)benzyl)-2,3,4,5-tetrahydro-1H-pyrido[4,3-b]indole-8-carboxamide] | 0.5 to 1 µM |  |  |
| NC(=O)c1ccc(CN2CCC(NC(=O)c3ccc4[nH]c5c(c4c3)CN(Cc3ccc(C(F)(F)F)cc3)CC5)CC2)cc1 [Compound 52, N-(1-(4-carbamoylbenzyl)piperidin-4-yl)-2-(4-(trifluoromethyl)benzyl)-2,3,4,5-tetrahydro-1H-pyrido[4,3-b]indole-8-carboxamide] | 1 to 5 µM |  |  |
| Cn1cnc(CN2CCC(NC(=O)c3ccc4[nH]c5c(c4c3)CN(Cc3ccc(C(F)(F)F)cc3)CC5)CC2)c1 [Compound 53, N-(1-((1-methyl-1H-imidazol-4-yl)methyl)piperidin-4-yl)-2-(4-(trifluoromethyl)benzyl)-2,3,4,5-tetrahydro-1H-pyrido[4,3-b]indole-8-carboxamide] | 10 to 50 µM |  |  |
| O=C(NC1CCN(Cc2cocn2)CC1)c1ccc2[nH]c3c(c2c1)CN(Cc1ccc(C(F)(F)F)cc1)CC3 [Compound 54, N-(1-(oxazol-4-ylmethyl)piperidin-4-yl)-2-(4-(trifluoromethyl)benzyl)-2,3,4,5-tetrahydro-1H-pyrido[4,3-b]indole-8-carboxamide] | < 0.5 µM |  |  |
| O=C(NC1CCN(Cc2ccccc2)CC1)c1ccc(CN2CCN(Cc3ccccc3)CC2)cc1 [Compound 55, 4-((4-benzylpiperazin-1-yl)methyl)-N-(1-benzyl-piperidin-4-yl)benzamide] |  | < 0.1 µM |  |
| O=C(NC1CCN(Cc2ccccc2)CC1)c1ccc(CN2CCN(CC3CCCCC3)CC2)cc1 [Compound 56, N-(1-benzylpiperidin-4-yl)-4-((4-(cyclohexyl-methyl)piperazin-1-yl)methyl)benzamide] |  | 1 to 10 µM |  |
| O=C(NC1CCN(Cc2ccccc2)CC1)c1ccc(CN2CCN(c3ccc(C(F)(F)F)cn3)CC2)cc1 [Compound 57, N-(1-benzylpiperidin-4-yl)-4-((4-(5-(trifluoro-methyl)pyridin-2-yl)piperazin-1-yl)methyl) benzamide] |  | < 0.1 µM |  |
| O=C(NC1CCN(Cc2ccccc2)CC1)c1ccc(CN2CCN(c3ccccn3)CC2)cc1 [Compound 58, N-(1-benzylpiperidin-4-yl)-4-((4-(pyridin-2-yl)piperazin-1-yl)methyl) benzamide] |  | 1 to 10 µM |  |
| O=C(NC1CCN(Cc2ccncc2)CC1)c1ccc(CN2CCN(Cc3ccccc3)CC2)cc1 [Compound 59, 4-((4-benzylpiperazin-1-yl)methyl)-N-(1-(pyridin-4-ylmethyl)piperidin-4-yl)benzamide] |  | 0.1 to 0.5 µM |  |
| O=C(NC1CCN(Cc2cccnc2)CC1)c1ccc(CN2CCN(Cc3ccccc3)CC2)cc1 [Compound 60, 4-((4-benzylpiperazin-1-yl)methyl)-N-(1-(pyridin-3-ylmethyl)piperidin-4-yl) benzamide] |  | 0.1 to 0.5 µM |  |
| N#Cc1ccc(CN2CCC(NC(=O)c3ccc(CN4CCN(Cc5ccccc5)CC4)cc3)CC2)cc1 [Compound 61, 4-((4-benzylpiperazin-1-yl)methyl)-N-(1-(4-cyanobenzyl)piperidin-4-yl)benzamide] |  | < 0.1 µM |  |
| O=C(NC1CCN(Cc2ccc(C(F)(F)F)cc2)CC1)c1ccc(CN2CCN(Cc3ccccc3)CC2)cc1 [Compound 62, 4-((4-benzylpiperazin-1-yl)methyl)-N-(1-(4-trifluoromethylbenzyl)piperidin-4-yl) benzamide] |  | < 0.1 µM |  |
| O=C(NC1CCN(Cc2ccccc2)CC1)c1ccc2cc(OC3CCN(Cc4ccc(C(F)(F)F)cc4)CC3)ccc2c1 [Compound 63, N-(1-benzylpiperidin-4-yl)-6-(1-(4-(trifluoro-methyl)benzyl)piperidin-4-yloxy)-2-naphthamide] |  |  | EC50 (Table 4, ELISA): < 0.5 µM |
| N#Cc1ccc(CN2CCC(Oc3ccc4cc(C(=O)NC5CCN(Cc6ccccc6)CC5)ccc4c3)CC2)cc1 [Compound 64, N-(1-benzylpiperidin-4-yl)-6-(1-(4-cyano-benzyl)piperidin-4-yloxy)-2-naphthamide] |  |  | EC50 (Table 4, ELISA): < 0.5 µM |
| O=C(NC1CCN(Cc2ccccc2)CC1)c1ccc2cc(OC3CCN(c4ccc(C(F)(F)F)cc4)CC3)ccc2c1 [Compound 65, N-(1-benzylpiperidin-4-yl)-6-(1-(4-(trifluoro-methyl)phenyl)piperidin-4-yloxy)-2-naphthamide] |  |  | EC50 (Table 4, ELISA): 1 to 5 µM |
| CC(C)(C)OC(=O)N1CCC(NC(=O)c2ccc3ccc(OC4CCN(c5ccc(C(F)(F)F)cc5)CC4)cc3c2)CC1 [Compound 66, tert-butyl 4-(7-(1-(4-(trifluoromethyl)phenyl)piperidin-4-yloxy)-2-naphthamido)piperidine-1-carboxylate] |  |  | EC50 (Table 4, ELISA): 1 to 5 µM |
| CC(C)(C)OC(=O)N1CCC(NC(=O)c2cnc3ccc(OC4CCN(c5ccc(C(F)(F)F)cc5)CC4)cc3c2)CC1 [Compound 67, tert-butyl 4-(6-(1-(4-(trifluoromethyl)phenyl)piperidin-4-yloxy)quinoline-3-carboxamido)piperidine-1-carboxylate] |  |  | EC50 (Table 5, ELISA): 0.1 to 0.5 µM |
| O=C(NC1CCNCC1)c1cnc2ccc(OC3CCN(c4ccc(C(F)(F)F)cc4)CC3)cc2c1 [Compound 68, N-(piperidin-4-yl)-6-(1-(4-(trifluoromethyl)phenyl)piperidin-4-yloxy) quinoline-3-carboxamide] |  |  | EC50 (Table 5, ELISA): > 5 µM |
| N#Cc1ccc(CN2CCC(NC(=O)c3cnc4ccc(OC5CCN(c6ccc(C(F)(F)F)cc6)CC5)cc4c3)CC2)cc1 [Compound 69, N-(1-(4-cyanobenzyl)piperidin-4-yl)-6-(1-(4-(trifluoromethyl)phenyl)piperidin-4-yloxy) quinoline-3-carboxamide] |  |  | EC50 (Table 5, ELISA): < 0.1 µM |
| O=C(NC1CCN(Cc2ccc(C(F)(F)F)cc2)CC1)c1cnc2ccc(OC3CCN(c4ccc(C(F)(F)F)cc4)CC3)cc2c1 [Compound 70, N-(1-(4-(trifluoromethyl)benzyl)piperidin-4-yl)-6-(1-(4-(trifluoromethyl)phenyl)piperidin-4-yloxy) quinoline-3-carboxamide] |  |  | EC50 (Table 5, ELISA): < 0.1 µM |
